# According to patent US4497803A, “Inclusion compound of lankacidin-group antibiotic and use thereof” (priority 1982, dated 1985):
# Read-outs that look alike come from different tables or passages of the source.
# How the values were obtained:
# [1] = Solubility of inclusion compound in water; assay type: physicochemical
# Protocol: The lankacidin-group is added to each of solutions containing various amounts of cyclodextrin. The minimum concentration of cyclodextrin which dissolves the maximum amount of the lankacidin-group compound and practical concentrations thereof are determined on the basis of amounts of the lankacidin-group compound dissolved in the cyclodextrin solutions. Then, the molar ratio of cyclodextrin to lankacidin-group compound is calculated by the following equation:
# Molar ratio=[Molarity of cyclodextrin]:[(Saturation molarity of lankacidin-group compound in a certain concentration of cyclodextrin-solution)-(saturation molarity of lankacidin-group compound in an aqueous solution)].
# Moreover, a large amount of the present inclusion compound is dissolved in water and it is kept stably therein. Solubility of the inclusion compound in water is greater than that of landacidin-group compounds in water, when the amount of the inclusion compound dissolved is calculated in terms of lankacidin-group compound, and than saturation concentration of cyclodextrin in water so far as cyclodextrin contained in the inclusion compound is concerned (Table 2).
# (1) Solubility of lankacidingroup in water.
# (2) Solubility of lankacidingroup in M/100 cyclodextrin solution.
# (3) Concentration of cyclodextrin of (2).
# (4) Solubility (maximum) of the present inclusion compound (calculated in
# terms of lankacidingroup contained) in water.
# (5) Concentration of cyclodextrin contained in the inclusion compound of […]
# St. aureus 209P = assay: Stability of inclusion compound of lankacidin-group (24° C., for 6 days): antibacterial activity by paper disk assay; assay type: cell-based; conditions: methanol, 1000 μg/ml
# Protocol: The inclusion compound of the present invention is stable in an aqueous solution, although it splits into lankacidin-group moiety and cyclodextrins moiety, when it is in the form of solution or powder, by contacting it with organic solvents (e.g., ethyl acetate, methyl isobutyl ketone) or various carriers (e.g., silica gel, high-porous resins). […] In comparing the antibacterial activity, concentrations of the inclusion compound are calculated in terms of lankacidin-group compound from which the inclusion compound is prepared.
# Stability of inclusion compound of lankacidin-group
# *1 Paper disk assay using Trypticase soy agar (Baltimore Biologicals Ltd.
# U.S.A.) as test culture media.
# *2 1000 μg/ml, Lankacidingroup is stable in methanol.
# *3 Aqueous solution of the inclusion compound with cyclodextrin (1000
# μg/ml calculated in terms of lankacidingroup)
# [2] = Solubility in β-CD solution, shaken 16 hours (Example 3); assay type: physicochemical
# Protocol: (§1) Powdery lankacidin C was added to an aqueous solution of cyclodextrin (hereinafter referred to as "CD") to have 4 mg/ml of the lankacidin C contained. After the mixture was stirred with a mixer, it was shaken at 5° C. for 2 hours, and passed through filter paper. The absorbancy of the filtrate was measured at 227-229 nm to determine concentration of the lankacidin C.
# The solubilities of lankacidin A, lankacidin C and lankacidinol in a β-CD solution were measured in the same manner as that of Example 1 except that the shaking was continued for 16 hours.
# [3] = Solubility of lankacidin-group in β-CD solution (10^-2 Mol/l), shaken 30 minutes to one hour (Example 4); assay type: physicochemical
# Protocol: as §1
# The solubility of lankacidin-group in a solution of β-CD (10^-2 Mol/l) were measured in the same manner as that of Example 1 except that the shaking was continued for 30 minutes to one hour.
# [4] = Solubility of C8-P and C14-P in CD solution, shaken one hour (Example 2); assay type: physicochemical
# Protocol: as §1
# Solubilities of lankacidin C 8-propionate (hereinafter referred to as "C8-P"), and lankacidin C 14-propionate (hereinafter referred to as "C14-P") in a solution of CD were measured in the same manner as that of Example 1 except that the shaking was continued for one hour.
# [5] = aqueous β-cd solution, β-CD 10^-2 Mol/l
# [6] = aqueous β-cd solution, β-CD 10^-3 Mol/l
# [7] = aqueous β-cyclodextrin solution, β-CD 10^-2 Mol/l, read-out: Solubility
# [8] = β-CD 0 Mol/l (water), read-out: Solubility
smiles,measurement,setting,value
"CC1=CCC(O)C=CC(C)=CC(NC(=O)C(C)O)C2(C)C(=O)OC(CC(O)C=C1)C(C)C2=O (centres unmarked) [Lankacidinol, lankacidinol]",solubility,"[1]; m/100 cyclodextrin solution, M/100 cyclodextrin, (3) cyclodextrin 11.3 mg/ml, read-out: (2) Solubility of lankacidin-group in M/100 cyclodextrin solution",3780 µg/mL
same,solubility,"[1]; water, read-out: (1) Solubility of lankacidin-group in water",655 µg/mL
same,"Antibacterial activity, inhibition diameter",St. aureus 209P; 0 day,25.75 mm
same,"Antibacterial activity, inhibition diameter",St. aureus 209P; 3 days at 24° C.,27.0 mm
same,"Antibacterial activity, inhibition diameter",St. aureus 209P; 6 days at 24° C.,30.0 mm
same,solubility at 16 h,"[2]; aqueous β-cd solution, β-CD 2 × 10^-3 Mol/l",1360 µg/mL
same,solubility at 16 h,"[2]; aqueous β-cd solution, β-CD 5 × 10^-3 Mol/l",2130 µg/mL
same,solubility at 16 h,[2]; [5],2750 µg/mL
same,solubility at 16 h,[2]; [6],914 µg/mL
same,Solubility in β-CD solution as function of β-CD concentration,[2]; from the vicinity of 10^-3 Mol/l of β-CD,increase in proportion to the concentration of β-CD
same,solubility at 16 h,"[2]; water, β-CD 0 Mol/l",444 µg/mL
"CC1=CCC(O)C=CC(C)=CC(NC(=O)C(C)O)C(C)C(=O)C(C)=CCC(O)C=C1 (centres unmarked) [Lankacyclinol, lankacyclinol]",ratio: Solubility in a 10^-2 Mol/l solution of CD/solubility in water,[3],4.38
same,solubility,[3]; aqueous β-cyclodextrin solution,3610 µg/mL
same,solubility,[3]; water,824 µg/mL
"CC(=O)OC1C=CC(C)=CCC(O)C=CC(C)=CC(NC(=O)C(C)O)C2(C)C(=O)OC(C1)C(C)C2=O (centres unmarked) [Lankacidinol A, lankacidinol A]",solubility,[3]; [7],3070 µg/mL
same,solubility,[3]; [8],170 µg/mL
same,ratio: Solubility in a 10^-2 Mol/l solution of CD/solubility in water,[3]; β-CD 10^-2 Mol/l vs water,18.1
"CCC(=O)OC1C=CC(C)=CC(NC(=O)C(C)=O)C2(C)C(=O)OC(CC(O)C=CC(C)=CC1)C(C)C2=O (centres unmarked) [C8-P, lankacidin C 8-propionate]","Solubility in CD solution, C8-P compared with C14-P",[4]; CD solutions,better solubility than that of C14-P
same,solubility at 1 h,[4]; [5],3840 µg/mL
same,solubility at 1 h,[4]; [6],328 µg/mL
same,solubility at 1 h,"[4]; aqueous β-cd solution, β-CD 10^-4 Mol/l",46 µg/mL
same,solubility at 1 h,"[4]; aqueous γ-cd solution, γ-CD 10^-2 Mol/l",1610 µg/mL
same,solubility at 1 h,"[4]; aqueous γ-cd solution, γ-CD 10^-3 Mol/l",249 µg/mL
same,solubility at 1 h,"[4]; aqueous γ-cd solution, γ-CD 10^-4 Mol/l",54 µg/mL
same,solubility at 1 h,"[4]; water, β-CD, CD 0 Mol/l",18 µg/mL
same,solubility at 1 h,"[4]; water, γ-CD, CD 0 Mol/l",19 µg/mL
"CC(=O)OC1C=CC(C)=CC(NC(=O)C(C)=O)C2(C)C(=O)OC(CC(OC(C)=O)C=CC(C)=CC1)C(C)C2=O (centres unmarked) [Lankacidin C 8,14-diacetate, lankacidin C 8,14-diacetate]",solubility,[3]; [7],681 µg/mL
same,solubility,[3]; [8],16.2 µg/mL
same,ratio: Solubility in a 10^-2 Mol/l solution of CD/solubility in water,[3]; β-CD 10^-2 Mol/l vs water,42.0
CCCC(=O)OC1C=CC(C)=CC(NC(=O)C(C)=O)C2(C)C(=O)OC(CC(O)C=CC(C)=CC1)C(C)C2=O (centres unmarked) [Lankacidin C 8-butylate],solubility,[3]; [7],404 µg/mL
same,solubility,[3]; [8],9 µg/mL
same,ratio: Solubility in a 10^-2 Mol/l solution of CD/solubility in water,[3]; β-CD 10^-2 Mol/l vs water,44.9
"CC(=O)OC1C=CC(C)=CC(NC(=O)C(C)O)C2(C)C(=O)OC(CC(OC(C)=O)C=CC(C)=CC1)C(C)C2=O (centres unmarked) [Lankacidinol 8,14-diacetate]",solubility,[3]; [7],1780 µg/mL
same,solubility,[3]; [8],440 µg/mL
same,ratio: Solubility in a 10^-2 Mol/l solution of CD/solubility in water,[3]; β-CD 10^-2 Mol/l vs water,4.05
